Source: patent US20230172204A1 (BASF SE, priority 2020, published 2023)

Columns and labels:
[1] = tested on: Phakopsora pachyrhizi (F129L); experiment: Protective control of soybean rust on soybeans (PHAKPA P2); type: in vivo; details: for % PHAKPA (F129L) Disease level P2 at 4 ppm: protective P2, 4 ppm; for % PHAKPA (F129L) Disease level P2 at 4 ppm / % PHAKPA (F129L) Disease level P2 at 16 ppm: soybean rust F129L; for % PHAKPA (F129L) Disease level P2 at 16 ppm: protective P2, 16 ppm; for PHAKPA (F129L) Disease level (%) P2 at 16 ppm / PHAKPA (F129L) Disease level (%) P2 at 4 ppm: P2 protective, % diseased leaf area
[2] = tested on: Phakopsora pachyrhizi (F129L); experiment: Protective control of soybean rust on soybeans (PHAKPA P6); type: in vivo; details: for % PHAKPA (F129L) Disease level P6 at 4 ppm: protective P6, 4 ppm; for % PHAKPA (F129L) Disease level P6 at 4 ppm / % PHAKPA (F129L) Disease level P6 at 16 ppm: soybean rust F129L; for % PHAKPA (F129L) Disease level P6 at 16 ppm: protective P6, 16 ppm
[3] = P6 protective, % diseased leaf area

| Compound | % PHAKPA (F129L) Disease level P2 at 4 ppm [1] | % PHAKPA (F129L) Disease level P2 at 16 ppm [1] | % PHAKPA (F129L) Disease level P6 at 4 ppm [2] | % PHAKPA (F129L) Disease level P6 at 16 ppm [2] | PHAKPA (F129L) Disease level (%) P2 at 16 ppm [1] | PHAKPA (F129L) Disease level (%) P6 at 16 ppm [2, 3] | PHAKPA (F129L) Disease level (%) P2 at 4 ppm [1] | PHAKPA (F129L) Disease level (%) P6 at 4 ppm ([2]; P6 protective, 4 ppm, % diseased leaf area) |
| --- | --- | --- | --- | --- | --- | --- | --- | --- |
| CNC(=O)/C(=N/OC)c1cccc(C)c1CO/N=C(\C)c1cccc(-c2cc(C)on2)c1 [compound 42] | 60% | 23% | 60% | 20% |  |  |  |  |
| CNC(=O)/C(=N/OC)c1ccccc1CO/N=C(\C)c1cccc(N2CC(F)(F)C2)c1 [reference compound] |  |  |  |  | 70% | 53% |  |  |
| CO/N=C(/C(=O)OC)c1cccc(C)c1CO/N=C(\C)c1ccc(C(C)=O)cc1 [compound 166] | 100% | 83% | 90% | 43% |  |  |  |  |
| CNC(=O)/C(=N/OC)c1cccc(C)c1CO/N=C(\C)c1ccc(Cl)c(C)c1 [compound 107] | 1% | 0% | 15% | 1% |  |  |  |  |
| CO/N=C(/C(=O)OC)c1cccc(C)c1CO/N=C(\C)c1ccc(C)c(C)c1 [compound 137] | 19% | 2% | 50% | 5% |  |  |  |  |
| CNC(=O)/C(=N/OC)c1cccc(C)c1CO/N=C(\C)c1cccc(/C(=N/OC)C(F)(F)F)c1 [compound 71] | 2% | 0% | 6% | 0% |  |  |  |  |
| CO/C=C(/C(=O)OC)c1cccc(C)c1CO/N=C(\C)c1ccc(C)cc1C(F)(F)F [compound 446] | 2% | 0% | 6% | 0% |  |  |  |  |
| CNC(=O)/C(=N/OC)c1cccc(C)c1CO/N=C(\C)c1ccc(F)cc1C(F)(F)F [compound 260] | 22% | 0% | 22% | 0% |  |  |  |  |
| CNC(=O)/C(=N/OC)c1cccc(Br)c1CO/N=C(\C)c1ccccc1 [compound 396] | 3% | 0% | 4% | 0% |  |  |  |  |
| CNC(=O)/C(=N/OC)c1cccc(C)c1CO/N=C(\C)c1ccccc1C1(C)CC1 [compound 296] | 100% | 40% | 100% | 83% |  |  |  |  |
| CNC(=O)/C(=N/OC)c1ccccc1CO/N=C(\C)c1cc(Cl)ccc1Cl [reference compound] |  |  |  |  |  |  | 87% | 97% |
| CO/N=C(/C(=O)OC)c1cccc(C)c1CO/N=C(\C)c1ccccc1Br [compound 119] | 93% | 63% | 92% | 63% |  |  |  |  |
| CO/N=C(/C(=O)OC)c1cccc(C)c1CO/N=C(\C)c1ccc(F)cc1C(F)(F)F [compound 263] | 80% | 15% | 73% | 22% |  |  |  |  |
| CNC(=O)/C(=N/OC)c1cccc(C)c1CO/N=C(\C)c1cccc(F)c1C(F)(F)F [compound 326] | 25% | 0% | 30% | 1% |  |  |  |  |
| CO/N=C(/C(=O)OC)c1cccc(C)c1CO/N=C(\C)c1ccc(OC(F)(F)F)cc1 [compound 133] | 1% | 0% | 2% | 0% |  |  |  |  |
| CNC(=O)/C(=N/OC)c1cccc(C)c1CO/N=C(\C)c1ccc(/C(C)=N/OC)cc1 [compound 182] | 6% | 0% | 13% | 0% |  |  |  |  |
| CO/N=C(/C(=O)OC)c1ccccc1CO/N=C(\C)c1cccc(Br)c1 [reference compound] |  |  |  |  | 80% | 87% |  |  |
| CO/N=C(/C(=O)OC)c1cccc(C)c1CO/N=C(\C)c1cc(Br)cc(Br)c1 [compound 135] | 15% | 1% | 16% | 2% |  |  |  |  |
| CNC(=O)/C(=N/OC)c1cccc(C)c1CO/N=C(\C)c1cccc(C(C)C)c1 [compound 105] | 18% | 1% | 39% | 13% |  |  |  |  |
| CO/N=C(/C(=O)OC)c1cccc(C)c1CO/N=C(\C)c1c(F)ccc(C(F)(F)F)c1F [compound 156] | 27% | 0% | 47% | 3% |  |  |  |  |
| CO/N=C(/C(=O)OC)c1ccccc1CO/N=C(\C)c1ccc(OC)cc1 [reference compound] |  |  |  |  | 67% | 33% |  |  |
| CO/N=C(/C(=O)OC)c1cccc(C)c1CO/N=C(\C)c1cccc(C#N)c1 [Ex. 104] | 22% | 15% | 19% | 11% | 37% | 28% |  |  |
| CO/N=C(/C(=O)OC)c1ccccc1CO/N=C(\C)c1cc(Cl)cc(Cl)c1 [reference compound] |  |  |  |  | 27% | 17% |  |  |
| CNC(=O)/C(=N/OC)c1cccc(C)c1CO/N=C(\C)c1ccccc1OC1CC1 [compound 329] | 100% | 53% | 100% | 73% |  |  |  |  |
| C#Cc1cccc(/C(C)=N/OCc2c(C)cccc2/C(=N\OC)C(=O)NC)c1 [compound 54] | 0% | 1% | 20% | 0% |  |  |  |  |
| CNC(=O)/C(=N/OC)c1cccc(C)c1CO/N=C(\C)c1ccccc1OC [Ex. 126] | 87% | 34% | 95% | 70% | 32% | 60% |  |  |
| C=Cc1cc(/C(C)=N/OCc2c(C)cccc2/C(=N\OC)C(=O)NC)cc(C(F)(F)F)c1 [compound 152] | 24% | 1% | 38% | 7% |  |  |  |  |
| CNC(=O)/C(=N/OC)c1cccc(C)c1CO/N=C(\C)c1ccc(F)cc1OC(F)(F)F [compound 378] | 18% | 1% | 17% | 1% |  |  |  |  |
| CO/N=C(/C(=O)OC)c1cccc(C)c1CO/N=C(\SC)c1cccc(Cl)c1 [drawing 982, reference compound] |  |  |  |  |  | 18% | 47% |  |
| CO/N=C(/C(=O)OC)c1cccc(C)c1CO/N=C(\C)c1c(Cl)cccc1Cl [compound 171] | 100% | 100% | 80% | 50% |  |  |  |  |
